Measurements as given in ChEMBL document CHEMBL6071200, “Discovery of Ring-Annulated Analogues of Cannabidiol as Potential Anticancer Agents: Synthesis and Biological Evaluation” (ACS Med Chem Lett, 2024).
Values after ≈ are worked out from the molar mass of the structure shown. Active and inactive are the calls of the source. No cut-off for these calls is given here.

Legend:
HCT-116 [1] = test: Cytotoxicity against human HCT-116 cells assessed as inhibition of cell growth at 20 uM incubated for 48 hrs by SRB assay relative to control; type: functional
MCF7 [2] = test: Cytotoxicity against human MCF7 cells assessed as inhibition of cell growth at 20 uM incubated for 48 hrs by SRB assay relative to control; type: functional
[3] = Selectivity index, ratio of IC50 for HEK293 cells to IC50 for human MCF7 cells; type: toxicity; details: HEK293 cells versus MCF7 cells, read-out: Ratio IC50
HCT-116 [4] = test: Cytotoxicity against human HCT-116 cells assessed as inhibition of cell growth incubated for 48 hrs by SRB assay; type: functional, cell-based; details: HCT-116, 48 h
MCF7 [5] = test: Cytotoxicity against human MCF7 cells assessed as inhibition of cell growth incubated for 48 hrs by SRB assay; type: functional, cell-based; details: MCF7, 48 h
[6] = Cytotoxicity against human HEK293 cells assessed as inhibition of cell growth incubated for 48 hrs by SRB assay; type: toxicity, cell-based
[7] = Selectivity index, ratio of IC50 for HEK293 cells to IC50 for human HCT-116 cells; type: toxicity; details: HEK293 cells versus HCT-116 cells, read-out: Ratio IC50
MCF7 [8] = test: Anticancer activity against human MCF7 cells assessed as effect on cell viability by SRB assay; type: functional, cell-based
HT-29 = test: Anticancer activity against human HT-29 cells; type: functional, cell-based
MCF7 [9] = test: Anticancer activity against human MCF7 cells; type: functional, cell-based
SNB-19 = test: Anticancer activity against human SNB-19 cells; type: functional, cell-based
DU-145 = test: Anticancer activity against human DU-145 cells; type: functional, cell-based
Raji = test: Anticancer activity against human Raji cells; type: functional, cell-based
Jurkat = test: Anticancer activity against human Jurkat cells; type: functional, cell-based
NCI-H226 = test: Anticancer activity against human NCI-H226 cells; type: functional, cell-based
[10] = Anticancer activity against mouse NIH3T3 cells; type: toxicity, cell-based
[11] = Solubility of compound in SIF by UV absorbance based analysis; type: physicochemical
[12] = Solubility of compound in SGF by UV absorbance based analysis; type: physicochemical
[13] = Solubility of compound in water by UV absorbance based analysis; type: physicochemical

Structure (SMILES): C=C(C)[C@@H]1CCC(C)=C[C@H]1c1c(O)cc(CCCCC)c2c1OCN(c1ccc(OC(F)(F)F)cc1)C2
- inhibition at 20 µM (HCT-116 [1]): 0%
- inhibition at 20 µM (MCF7 [2]): 0%

Structure (SMILES): C=C(C)[C@@H]1CCC(C)=C[C@H]1c1c(O)cc(CCCCC)c2c1OCN(CC)C2
- selectivity ratio [3]: 1.9
- IC50 (HCT-116 [4]): 22100 nM
- inhibition at 20 µM (HCT-116 [1]): 57.2%
- IC50 (MCF7 [5]): 8600 nM
- inhibition at 20 µM (MCF7 [2]): 84.3%
- IC50 at 48 h [6]: 16800 nM
- selectivity ratio [7]: 0.7

Structure (SMILES): C=C(C)[C@@H]1CCC(C)=C[C@H]1c1c(O)cc(CCCCC)c2c1OCN(c1ccccc1F)C2
- inhibition at 20 µM (HCT-116 [1]): 1.13%
- inhibition at 20 µM (MCF7 [2]): 16.6%

Structure (SMILES): Cc1ccc(Cn2nc(C(=O)N[C@@H]3C(C)(C)[C@@H]4CC[C@@]3(C)C4)cc2-c2ccc(Cl)c(C)c2)cc1
- Activity (MCF7 [8]): inactive

Structure (SMILES): C=C(C)[C@@H]1CCC(C)=C[C@H]1c1c2c(c(CCCCC)c3c1OCN(CCCC)C3)CN(CCCC)CO2
- inhibition at 20 µM (HCT-116 [1]): 0%
- inhibition at 20 µM (MCF7 [2]): 0%

Structure (SMILES): C=C(C)[C@@H]1CCC(C)=C[C@H]1C1=C(O)C(=O)C(CCCCC)=CC1=O
- IC50 (HT-29): 449 nM
- IC50 (MCF7 [9]): 449 nM
- IC50 (SNB-19): 449 nM
- IC50 (DU-145): 449 nM
- IC50 (Raji): 449 nM
- IC50 (Jurkat): 449 nM
- IC50 (NCI-H226): 449 nM
- IC50 [10]: 449 nM

Structure (SMILES): Cc1cc(C)c2nc(-c3ccccn3)cc(C(=O)Nc3ccc(S(=O)(=O)Nc4onc(C)c4C)cc3)c2c1
- Activity (MCF7 [8]): inactive

Structure (SMILES): CCCCCC1=CC(=O)C([C@@H]2C=C(C)CC[C@H]2C(C)C)=C(O)C1=O
- IC50 (Raji): 154 nM
- IC50 (Jurkat): 154 nM

Structure (SMILES): C=C(C)[C@@H]1CCC(C)=C[C@H]1C1=C(O)C(=O)C(CCCCC)=C(C)C1=O
- IC50 (HT-29): 449 nM
- IC50 (MCF7 [9]): 449 nM
- IC50 (SNB-19): 449 nM
- IC50 (DU-145): 449 nM
- IC50 (Raji): 449 nM
- IC50 (Jurkat): 449 nM
- IC50 (NCI-H226): 449 nM
- IC50 [10]: 449 nM

Structure (SMILES): C=C(C)[C@@H]1CCC(C)=C[C@H]1c1c(O)cc(CCCCC)c2c1OCN(CCC)C2
- selectivity ratio [3]: 3.5
- IC50 (HCT-116 [4]): 7300 nM
- inhibition at 20 µM (HCT-116 [1]): 62.8%
- IC50 (MCF7 [5]): 6100 nM
- inhibition at 20 µM (MCF7 [2]): 82.4%
- IC50 at 48 h [6]: 21800 nM
- selectivity ratio [7]: 2.9

Structure (SMILES): C=C(C)[C@@H]1CCC(C)=C[C@H]1c1c(O)cc(CCCCC)c2c1OCN(Cc1ccccc1)C2
- inhibition at 20 µM (HCT-116 [1]): 52.3%
- inhibition at 20 µM (MCF7 [2]): 46.5%

Structure (SMILES): O=C(/C=C/C=C/c1ccc2c(c1)OCO2)N1CCCCC1 [PIPERINE]
- solubility [11]: 60 µg/mL (≈ 210 µM)
- solubility [12]: 40 µg/mL (≈ 140 µM)
- solubility [13]: 40 µg/mL (≈ 140 µM)

Structure (SMILES): C=C(C)[C@@H]1CCC(C)=C[C@H]1c1c(O)cc(CCCCC)c2c1OCN(C)C2
- selectivity ratio [3]: 1.6
- IC50 (HCT-116 [4]): 11700 nM
- inhibition at 20 µM (HCT-116 [1]): 56.3%
- IC50 (MCF7 [5]): 7700 nM
- inhibition at 20 µM (MCF7 [2]): 85.3%
- IC50 at 48 h [6]: 12400 nM
- selectivity ratio [7]: 1.1

Structure (SMILES): C=C(C)[C@@H]1CCC(C)=C[C@H]1c1c(O)cc(CCCCC)c2c1OCN(CCCN1CCOCC1)C2
- selectivity ratio [3]: 1.2
- IC50 (HCT-116 [4]): 12100 nM
- inhibition at 20 µM (HCT-116 [1]): 58.5%
- IC50 (MCF7 [5]): 8800 nM
- inhibition at 20 µM (MCF7 [2]): 76.8%
- IC50 at 48 h [6]: 10600 nM
- selectivity ratio [7]: 0.8

Structure (SMILES): Oc1cc2c(cc1O)CN(C(=S)NCCc1ccc(Cl)cc1)CCC2
- Activity (MCF7 [8]): inactive

Structure (SMILES): C=C(C)[C@@H]1CCC(C)=C[C@H]1c1c(O)cc(CCCCC)c2c1OCN(CCCCCC)C2
- selectivity ratio [3]: 2.4
- IC50 (HCT-116 [4]): 19800 nM
- inhibition at 20 µM (HCT-116 [1]): 70.9%
- IC50 (MCF7 [5]): 9500 nM
- inhibition at 20 µM (MCF7 [2]): 83%
- IC50 at 48 h [6]: 23500 nM
- selectivity ratio [7]: 1.1

Structure (SMILES): C=C(C)[C@@H]1CCC(C)=C[C@H]1c1c(O)cc(CCCCC)c2c1OCN(c1ccc(C(C)C)cc1)C2
- inhibition at 20 µM (HCT-116 [1]): 0%
- inhibition at 20 µM (MCF7 [2]): 9.47%

Structure (SMILES): C=C(C)[C@@H]1CCC(C)=C[C@H]1c1c(O)cc(CCCCC)c2c1OCN(C1CC1)C2
- inhibition at 20 µM (HCT-116 [1]): 51.7%
- inhibition at 20 µM (MCF7 [2]): 75.1%

Structure (SMILES): C=C(C)[C@@H]1CCC(C)=C[C@H]1C1=C(OC)C(=O)C(CCCCC)=CC1=O
- IC50 (HT-29): 449 nM
- IC50 (MCF7 [9]): 449 nM
- IC50 (SNB-19): 449 nM
- IC50 (DU-145): 449 nM
- IC50 (Raji): 449 nM
- IC50 (Jurkat): 449 nM
- IC50 (NCI-H226): 449 nM
- IC50 [10]: 449 nM

Structure (SMILES): COc1ccc(-c2oc3cc(OC)ccc3c2C(=O)c2ccc(C#N)cc2)cc1
- Activity (MCF7 [8]): inactive

Structure (SMILES): C=C(C)[C@@H]1CCC(C)=C[C@H]1c1c(O)cc(CCCCC)c2c1OCN(c1cnc3ccccc3c1)C2
- inhibition at 20 µM (HCT-116 [1]): 18%
- inhibition at 20 µM (MCF7 [2]): 0%

Structure (SMILES): O=C(Nc1ccccc1)c1cc([N+](=O)[O-])ccc1Cl
- Activity (MCF7 [8]): inactive

Structure (SMILES): C=C(C)[C@@H]1CCC(C)=C[C@H]1c1c(O)cc(CCCCC)c2c1OCN(c1ccccc1)C2
- inhibition at 20 µM (HCT-116 [1]): 4.09%
- inhibition at 20 µM (MCF7 [2]): 5.3%

Structure (SMILES): C=C(C)[C@@H]1CCC(C)=C[C@H]1c1c(O)cc(CCCCC)c2c1OCN(C1CCCCCC1)C2
- inhibition at 20 µM (HCT-116 [1]): 50.9%
- inhibition at 20 µM (MCF7 [2]): 74.8%
